Experimental data from patent publication US9925280B2, “Hyperpolarized amino acids” (BRACCO IMAGING S.P.A., priority 2012, dated 2018).

Assay: Solubility in anhydrous solvents
Type: physicochemical
Protocol: The above components of the DNP mixture can be admixed according to any suitable technique and methodology known in the art. In a preferred embodiment, the amino acid and the hydroxide are first admixed as dry powders. The powder mixture is then dissolved in the anhydrous solvent, which preferably already contains the polarizing agent dissolved therein. […] Optionally, the DNP mixture may further contain a paramagnetic metal ion, for further increasing the polarisation levels in the compound to be polarised (see e.g. WO 2007/064226 herein incorporated by reference); preferably, the paramagnetic metal ion is in the form of a complex with a chelating agent, such as, for instance DOTA, DO3A, BOPTA or DTPA; preferably the paramagnetic metal ion is a Gadolinium (Gd^3+).

- solubility in anhydrous solvents: very poor solubility
SMILES: NC(=O)CC[C@H](N)C(=O)O [glutamine]
